Drawing on patent US20240018145A1, “[…]-DEPENDENT EN[…] TREATING OR […]” (priority 2020, published 2024), this text covers EC50 for 28 compounds.

Read-outs that look alike come from different tables or passages of the source.

The test system of the test is FLU A (PR/8/34). In words: Flu A Neuraminidase Antiviral Assay. It is filed as cell-based.

For orientation: EC50 means the midpoint of the concentration-response curve. Low values mean a more potent agent, high ones a less potent agent. `Cc1ccccc1C1C(CC(F)(F)F)CCC2N(C)C(=O)c3c(O)c(=O)ccn3N12` (single isomer, unassigned) [Compound 120B, 7-hydroxy-5-methyl-1-(o-tolyl)-2-(2,2,2-trifluoroethyl)-1,2,3,4,4a,5-hexahydrodipyrido[1,2-b:2′,1′-f][1,2,4]triazine-6,8-dione]: the EC50 turned out to be 1.9 nM.
Same read-out and setting: with `Cc1cccnc1C1(C)CCCC2N(CC(F)(F)F)C(=O)c3c(O)c(=O)ccn3N21` (single isomer, unassigned) [Compound 44A, 7-hydroxy-1-methyl-1-(3-methylpyridin-2-yl)-5-(2,2,2-trifluoroethyl)-1,2,3,4,4a,5-hexahydrodipyrido[1,2-b:2′,1′-f][1,2,4]triazine-6,8-dione] the figure was more than 8100 nM; with `CN1C(=O)c2c(O)c(=O)ccn2N2C(c3cccc(F)c3)C(CC(F)(F)F)CCC12` (single isomer, unassigned) [Compound 121A, 1-(3-fluorophenyl)-7-hydroxy-5-methyl-2-(2,2,2-trifluoroethyl)-1,2,3,4,4a,5-hexahydrodipyrido[1,2-b:2′,1′-f][1,2,4]triazine-6,8-dione], 431 nM.
Still for that read-out and setting: then `CN1C(=O)c2c(O)c(=O)ccn2N2C1CCCC2(C)c1cccc(OC(F)F)c1` (single isomer, unassigned) [Compound 51A, 1-(3-(difluoromethoxy)phenyl)-7-hydroxy-1,5-dimethyl-1,2,3,4,4a,5-hexahydrodipyrido[1,2-b:2′,1′-f][1,2,4]triazine-6,8-dione], with more than 8100 nM; and `CN1C(=O)c2c(O)c(=O)ccn2N2C(c3ccccc3)C(C3CCC(F)(F)CC3)CCC12` (single isomer, unassigned) [Compound 84A, 2-(4,4-difluorocyclohexyl)-7-hydroxy-5-methyl-1-phenyl-1,2,3,4,4a,5-hexahydrodipyrido[1,2-b:2′,1′-f][1,2,4]triazine-6,8-dione], with more than 810 nM.
Same read-out and setting: then `CCN1C(=O)c2c(O)c(=O)ccn2N2C(c3ccccc3F)C(CCC(F)F)CCC12` (single isomer, unassigned) [Compound 101A, 2-(3,3-difluoropropyl)-5-ethyl-1-(2-fluorophenyl)-7-hydroxy-1,2,3,4,4a,5-hexahydrodipyrido[1,2-b:2′,1′-f][1,2,4]triazine-6,8-dione], with 148 nM; and `CN1C(=O)c2c(O)c(=O)ccn2N2C(c3ccccc3Br)C(CC(F)(F)F)CCC12` (single isomer, unassigned) [Compound 89B, 1-(2-bromophenyl)-7-hydroxy-5-methyl-2-(2,2,2-trifluoroethyl)-1,2,3,4,4a,5-hexahydrodipyrido[1,2-b:2′,1′-f][1,2,4]triazine-6,8-dione], with 2.4 nM.
With `CN1C(=O)c2c(O)c(=O)ccn2N2C(c3ccccc3)C(c3ccc(F)c(F)c3F)CCC12` (single isomer, unassigned) [Compound 85D, 7-hydroxy-5-methyl-1-phenyl-2-(2,3,4-trifluorophenyl)-1,2,3,4,4a,5-hexahydrodipyrido[1,2-b:2′,1′-f][1,2,4]triazine-6,8-dione], a half-maximal effect (EC50) was put at 218 nM.
The same measure, in the same setting: with `CN1C(=O)c2c(O)c(=O)ccn2N2C(c3c(F)cccc3F)C(CC(F)(F)F)CCC12` (single isomer, unassigned) [Compound 123C, 1-(2,6-difluorophenyl)-7-hydroxy-5-methyl-2-(2,2,2-trifluoroethyl)-1,2,3,4,4a,5-hexahydrodipyrido[1,2-b:2′,1′-f][1,2,4] triazine-6,8-dione] the figure was more than 8100 nM.
Still for that read-out and setting: then `CN1C(=O)c2c(O)c(=O)ccn2N2C(c3ccccc3)C(CCC(F)(F)F)CCC12C` (single isomer, unassigned) [Compound 78B, 7-hydroxy-4a,5-dimethyl-1-phenyl-2-(3,3,3-trifluoropropyl)-1,2,3,4,4a,5-hexahydrodipyrido[1,2-b:2′,1′-f][1,2,4]triazine-6,8-dione], with 2.9 nM.
Same read-out and setting: with `CN1C(=O)c2c(O)c(=O)ccn2N2C1CCCC2(C)c1ccccc1` (single isomer, unassigned) [Compound 18A, 7-hydroxy-1,5-dimethyl-1-phenyl-1,2,3,4,4a,5-hexahydrodipyrido[1,2-b:2′,1′-f][1,2,4]triazine-6,8-dione] the figure was 7.1 nM; with `CN1C(=O)c2c(O)c(=O)ccn2N2C(c3ccccc3)C3CCC(C3)C12` (single isomer, unassigned) [Compound 9B, 4-hydroxy-6-methyl-11-phenyl-6a,7,8,9,10,11-hexahydro-3H-7,10-methanopyrido[1′,2′:1,6][1,2,4]triazino[2,3-a]azepine-3,5(6H)-dione], 166 nM.
For `CN1C(=O)c2c(O)c(=O)ccn2N2C1CCC1(CCCC(F)(F)C1)C2c1ccccc1` (single isomer, unassigned) [Compound 75D, 3,3-difluoro-7′-hydroxy-5′-methyl-1′-phenyl-3′,4′,4a′,5′-tetrahydro-1′H-spiro[cyclohexane-1,2′-dipyrido[1,2-b:2′,1′-f][1,2,4]triazine]-6′,8′-dione], it took 19.2 nM to reach a half-maximal effect (EC50).
In turn, `CN1C(=O)c2c(O)c(=O)ccn2N2C1CCCC2(C)c1ncccc1F` (single isomer, unassigned) [Compound 27A, 1-(3-fluoropyridin-2-yl)-7-hydroxy-1,5-dimethyl-1,2,3,4,4a,5-hexahydrodipyrido[1,2-b:2′,1′-f][1,2,4]triazine-6,8-dione] gave an EC50 of 859 nM.
Same read-out and setting: with `Cc1ccccc1C1C(CCC(F)F)CCC2N(C)C(=O)c3c(O)c(=O)ccn3N12` (single isomer, unassigned) [Compound 103A, 2-(3,3-difluoropropyl)-7-hydroxy-5-methyl-1-(o-tolyl)-1,2,3,4,4a,5-hexahydrodipyrido[1,2-b:2′,1′-f][1,2,4]triazine-6,8-dione] the figure was more than 810 nM.
On the same count and under the same terms, then `Cc1ccccc1C1C(CC2CC2(F)F)CCC2N(C)C(=O)c3c(O)c(=O)ccn3N12` (single isomer, unassigned) [Compound 88B], with more than 810 nM.
`CN1C(=O)c2c(O)c(=O)ccn2N2[C@H](c3ccccc3)[C@H](OCCF)CC[C@@H]12` [Compound 162, (1R,2R,4aS)-2-(2-fluoroethoxy)-7-hydroxy-5-methyl-1-phenyl-1,2,3,4,4a,5-hexahydrodipyrido[1,2-b:2′,1′-f][1,2,4]triazine-6,8-dione] came in with a half-maximal effective concentration (EC50) (MDCK, 48 h) of 195 nM.
`CN1C(=O)c2c(O)c(=O)ccn2N2C(c3ccccc3)C(CC(C)(F)F)CCC12` (single isomer, unassigned) [Compound 126A, 2-(2,2-difluoropropyl)-7-hydroxy-5-methyl-1-phenyl-1,2,3,4,4a,5-hexahydrodipyrido[1,2-b:2′,1′-f][1,2,4]triazine-6,8-dione] gave an EC50 of more than 8100 nM.
Still for that read-out and setting: with `CN1C(=O)c2c(O)c(=O)ccn2N2C1CCCC2(C)c1cccc(OC(F)F)c1` (single isomer, unassigned) [Compound 51B, 1-(3-(difluoromethoxy)phenyl)-7-hydroxy-1,5-dimethyl-1,2,3,4,4a,5-hexahydrodipyrido[1,2-b:2′,1′-f][1,2,4]triazine-6,8-dione] the figure was 16.3 nM.
`CN1C(=O)c2c(O)c(=O)ccn2N2C(c3ccccc3)C(O)CCC12` (stereo not shown) [Compound 136A, 2,7-dihydroxy-5-methyl-1-phenyl-1,2,3,4,4a,5-hexahydrodipyrido[1,2-b:2′,1′-f][1,2,4]triazine-6,8-dione] yielded an EC50 of 1920 nM.
Still for that read-out and setting: then `CCN1C(=O)c2c(O)c(=O)ccn2N2C1CCCC2(C)c1cccc(C2CC2)n1` (single isomer, unassigned) [Compound 55A, 1-(6-cyclopropylpyridin-2-yl)-5-ethyl-7-hydroxy-1-methyl-1,2,3,4,4a,5-hexahydrodipyrido[1,2-b:2′,1′-f][1,2,4]triazine-6,8-dione], with more than 810 nM; and `CCCC1CCC2N(C)C(=O)c3c(O)c(=O)ccn3N2C1c1ccccc1C` (single isomer, unassigned) [Compound 92B, 7-hydroxy-5-methyl-2-propyl-1-(o-tolyl)-1,2,3,4,4a,5-hexahydrodipyrido[1,2-b:2′,1′-f][1,2,4]triazine-6,8-dione], with 3.3 nM.
`CC(C)S[C@H]1CC[C@H]2N(C)C(=O)c3c(O)c(=O)ccn3N2[C@@H]1c1ccccc1` [Compound 143B] registered a 50% effective concentration (EC50) (MDCK, 48 h) of 15.3 nM.
`CCCC1CCC2N(C)C(=O)c3c(O)c(=O)ccn3N2C1c1ccccc1C` (single isomer, unassigned) [Compound 92A, 7-hydroxy-5-methyl-2-propyl-1-(o-tolyl)-1,2,3,4,4a,5-hexahydrodipyrido[1,2-b:2′,1′-f][1,2,4]triazine-6,8-dione]: the concentration for a half-maximal effect (EC50) worked out at 4570 nM.
On the same count and under the same terms, then `C=CCC1CCC2N(C)C(=O)c3c(O)c(=O)ccn3N2C1c1ccccc1Cl` (stereo not shown) [Compound 64B, 2-allyl-1-(2-chlorophenyl)-7-hydroxy-5-methyl-1,2,3,4,4a,5-hexahydrodipyrido[1,2-b:2′,1′-f][1,2,4]triazine-6,8-dione], with 28.4 nM; and `CN1C(=O)c2c(O)c(=O)ccn2N2C1CCC1(CC(F)(F)C1)C2c1ccccc1` (single isomer, unassigned) [Compound 74C, 3,3-difluoro-7′-hydroxy-5′-methyl-1′-phenyl-3′,4′,4a′,5′-tetrahydro-1′H-spiro[cyclobutane-1,2′-dipyrido[1,2-b:2′,1′-f][1,2,4]triazine]-6′,8′-dione], with 32.5 nM; and `CC1(c2ccccc2)CCCC2N(CC3CC3)C(=O)c3c(O)c(=O)ccn3N21` (single isomer, unassigned) [Compound 37B, 5-(cyclopropylmethyl)-7-hydroxy-1-methyl-1-phenyl-1,2,3,4,4a,5-hexahydrodipyrido[1,2-b:2′,1′-f][1,2,4]triazine-6,8-dione], with 1240 nM.
Consider `Cc1ccccc1C1C(CC(F)(F)F)CC(C)C2N(C)C(=O)c3c(O)c(=O)ccn3N12` (single isomer, unassigned) [Compound 79B, 7-hydroxy-4,5-dimethyl-1-(o-tolyl)-2-(2,2,2-trifluoroethyl)-1,2,3,4,4a,5-hexahydrodipyrido[1,2-b:2′,1′-f][1,2,4]triazine-6,8-dione], for which a half-maximal response (EC50) required 2.3 nM.
